The results in this text go back to paper PMC2773450 (Analytical biochemistry, 2008).

The target in the experiment is T1, O^6-alkylguanine—DNA alkyltransferase (AGT) (Homo sapiens, UniProt P16455).
T1 sequence (P16455 1-207): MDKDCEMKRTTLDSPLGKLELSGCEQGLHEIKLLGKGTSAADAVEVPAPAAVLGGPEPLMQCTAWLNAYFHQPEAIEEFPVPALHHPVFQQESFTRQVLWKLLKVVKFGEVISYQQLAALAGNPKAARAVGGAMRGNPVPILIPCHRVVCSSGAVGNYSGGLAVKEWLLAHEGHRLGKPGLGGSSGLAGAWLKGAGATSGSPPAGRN

What is called pIC50 is the negative decadic logarithm of the IC50, by convention in mol/L. Low readings indicate a large IC50, high ones a small IC50.

pIC50: −log10 of the molar value.

Substance O^6-(thiophenemethyl)guanine [TMG] had a pIC50 of 7.64.
